Residues, ends and D or L forms follow the SMILES beside them. *: point of attachment. Cbz = O=C(OCc1ccccc1)*; OtBu = CC(C)(C)O*
Target: T1, human Nav1.7 (Homo sapiens, UniProt Q15858)
T1 construct: expressed in transfected cells; host or cells: HEK293 stably expressing human Nav1.7
Assay: Whole-cell patch-clamp, HEK293 cells stably expressing human Nav1.7 with GFP or FGF13-GFP
Assay type: cell-based
Settings: for Time constant of repriming, Mean: Fig 1L, PW164; for Activation / Long-term inactivation, 2nd Pulse / Long-term inactivation, 3rd Pulse / Long-term inactivation, 4th Pulse / Peak Density / Steady state inactivation / Tau (τ): HEK293 Nav1.7
Procedure: Whole-cell patch clamp electrophysiology
HEK293-Nav1.7 cells, HEK293 stably expressing human Nav1.6 (HEK-Nav1.6), HEK293 stably expressing human Nav1.5 (HEK-Nav1.5), human hIPSC-derived sensory neurons (RealDRGTM from Anatomic Incorporated 1020F1-1M) and donor-derived DRG neurons were plated at low density on glass coverslips and processed for whole-cell patch clamp electrophysiology in voltage-clamp and/or current clamp mode. Whole-cell patch electrophysiological experiments were conducted following previously published studies (26). Current densities were obtained by dividing INa amplitude by membrane capacitance. Current –voltage relationships were generated by plotting current density as a function of the […]. Conductance (G Na) was calculated by the […]
where INa is the current amplitude at voltage Vm, and Erev is the Na+ reversal potential.
Activation curves were derived by plotting normalized GNa as a function of test potential and fitted using […]
Where GNa,Max is the maximum conductance, Va is the membrane potential of half-maximal activation, Em is the membrane voltage and k is the slope factor. For steady -state inactivation, normalized current amplitude (INa/INa,Max) at the test potential was plotted as a function of prepulse potential (Vm) and fitted using the […]
Where Vh is the potential of half-maximal inactivation, E m is the membrane voltage, and k is the slope factor.
Transient INa inactivation decay was estimated with the standard exponential equation. Inactivation time constant (tau, τ) was fitted with the following equation: […]
where I(t) is the amplitude of the current at time t and Iss is the steady-state current during a single voltage-step.
The goodness of fitting was determined by correlation coefficient (R), and the cutoff of R was set at 0.85. To observe effects on long-term inactivation (LTI), a four-step protocol was employed during which cells were subjected to four 0 mV, 20 ms depolarization pulses separated by −90 mV, 40 ms recovery intervals. To control for various cell sizes, the current densities were calculated by dividing INa peak current amplitude/membrane capacitance (Cm). To represent the fraction of channels entering into LTI, the peak INa observed during depolarization cycles 2-4 was normalized to the peak INa observed during depolarization cycle 1 (INa/INa,Cycle 1) and plotted as a function of the depolarization cycle.
The cumulative (frequency-dependent) use-dependency was determined by applying 20 pulses with a depolarization to −10 mV (50 ms duration) and 50 ms recovery intervals with a train of 20 pulses at 10 Hz from a holding potential at -70 mV. The current pulses were normalized to the first reco rded pulse and the currents at the 2nd to 20th pulses were compared. The same train was used to record use-dependency at various frequencies […]
The rate of recovery from inactivation was recorded at -80 mV with a standard repriming voltage protocol.
The cells were prepulsed to -20 mV for 20 ms to inactivate all currents, then driven back to the recovery potential (Vrec) for increasing recovery durations before the test pulse to 0 mV. The maximum pulse rate was 0.5 Hz. The […]
follows previous publications (16). The time constants were estimated from single exponential decay to time courses measured at recovery potentials ranging from -140 to -60 mV with the protocol as mentioned above.
Electrophysiological Recordings
HEK293 cells: Electrophysiological recordings in HEK293 stably expressing Nav1.7 (HEK-Nav1.7), Nav1.5 (HEK-Nav1.5) or Nav1.6 (HEK-Nav1.6) were performed at room temperature using a MultiClamp 700B or an Axopatch 200B amplifier (Molecular Devices) after incubating coverslips for 60 minutes either with 0.1% DMSO or 50 μM PW164 or ZL192 in the extracellular solution. The composition of recording solutions consisted of the […]
following salts: extracellular (mM): 140 NaCl, 3 KCl, 1 MgCl2, 1 CaCl2, 10 HEPES, 10 glucose, pH 7.3; […]
intracellular (mM): 130 CH3O3 SCs, 1 EGTA, 10 NaCl, 10 HEPES, pH 7.3. […]

T1 sequence (Q92913 1-192 partner limits assumed): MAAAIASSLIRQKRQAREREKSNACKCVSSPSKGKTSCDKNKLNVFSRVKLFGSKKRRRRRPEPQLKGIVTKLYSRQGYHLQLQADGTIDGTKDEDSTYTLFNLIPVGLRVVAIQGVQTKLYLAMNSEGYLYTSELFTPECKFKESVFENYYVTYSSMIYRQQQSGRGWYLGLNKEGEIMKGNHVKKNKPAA
T1 sequence (Q15858 1-1977 isoform Q15858-3): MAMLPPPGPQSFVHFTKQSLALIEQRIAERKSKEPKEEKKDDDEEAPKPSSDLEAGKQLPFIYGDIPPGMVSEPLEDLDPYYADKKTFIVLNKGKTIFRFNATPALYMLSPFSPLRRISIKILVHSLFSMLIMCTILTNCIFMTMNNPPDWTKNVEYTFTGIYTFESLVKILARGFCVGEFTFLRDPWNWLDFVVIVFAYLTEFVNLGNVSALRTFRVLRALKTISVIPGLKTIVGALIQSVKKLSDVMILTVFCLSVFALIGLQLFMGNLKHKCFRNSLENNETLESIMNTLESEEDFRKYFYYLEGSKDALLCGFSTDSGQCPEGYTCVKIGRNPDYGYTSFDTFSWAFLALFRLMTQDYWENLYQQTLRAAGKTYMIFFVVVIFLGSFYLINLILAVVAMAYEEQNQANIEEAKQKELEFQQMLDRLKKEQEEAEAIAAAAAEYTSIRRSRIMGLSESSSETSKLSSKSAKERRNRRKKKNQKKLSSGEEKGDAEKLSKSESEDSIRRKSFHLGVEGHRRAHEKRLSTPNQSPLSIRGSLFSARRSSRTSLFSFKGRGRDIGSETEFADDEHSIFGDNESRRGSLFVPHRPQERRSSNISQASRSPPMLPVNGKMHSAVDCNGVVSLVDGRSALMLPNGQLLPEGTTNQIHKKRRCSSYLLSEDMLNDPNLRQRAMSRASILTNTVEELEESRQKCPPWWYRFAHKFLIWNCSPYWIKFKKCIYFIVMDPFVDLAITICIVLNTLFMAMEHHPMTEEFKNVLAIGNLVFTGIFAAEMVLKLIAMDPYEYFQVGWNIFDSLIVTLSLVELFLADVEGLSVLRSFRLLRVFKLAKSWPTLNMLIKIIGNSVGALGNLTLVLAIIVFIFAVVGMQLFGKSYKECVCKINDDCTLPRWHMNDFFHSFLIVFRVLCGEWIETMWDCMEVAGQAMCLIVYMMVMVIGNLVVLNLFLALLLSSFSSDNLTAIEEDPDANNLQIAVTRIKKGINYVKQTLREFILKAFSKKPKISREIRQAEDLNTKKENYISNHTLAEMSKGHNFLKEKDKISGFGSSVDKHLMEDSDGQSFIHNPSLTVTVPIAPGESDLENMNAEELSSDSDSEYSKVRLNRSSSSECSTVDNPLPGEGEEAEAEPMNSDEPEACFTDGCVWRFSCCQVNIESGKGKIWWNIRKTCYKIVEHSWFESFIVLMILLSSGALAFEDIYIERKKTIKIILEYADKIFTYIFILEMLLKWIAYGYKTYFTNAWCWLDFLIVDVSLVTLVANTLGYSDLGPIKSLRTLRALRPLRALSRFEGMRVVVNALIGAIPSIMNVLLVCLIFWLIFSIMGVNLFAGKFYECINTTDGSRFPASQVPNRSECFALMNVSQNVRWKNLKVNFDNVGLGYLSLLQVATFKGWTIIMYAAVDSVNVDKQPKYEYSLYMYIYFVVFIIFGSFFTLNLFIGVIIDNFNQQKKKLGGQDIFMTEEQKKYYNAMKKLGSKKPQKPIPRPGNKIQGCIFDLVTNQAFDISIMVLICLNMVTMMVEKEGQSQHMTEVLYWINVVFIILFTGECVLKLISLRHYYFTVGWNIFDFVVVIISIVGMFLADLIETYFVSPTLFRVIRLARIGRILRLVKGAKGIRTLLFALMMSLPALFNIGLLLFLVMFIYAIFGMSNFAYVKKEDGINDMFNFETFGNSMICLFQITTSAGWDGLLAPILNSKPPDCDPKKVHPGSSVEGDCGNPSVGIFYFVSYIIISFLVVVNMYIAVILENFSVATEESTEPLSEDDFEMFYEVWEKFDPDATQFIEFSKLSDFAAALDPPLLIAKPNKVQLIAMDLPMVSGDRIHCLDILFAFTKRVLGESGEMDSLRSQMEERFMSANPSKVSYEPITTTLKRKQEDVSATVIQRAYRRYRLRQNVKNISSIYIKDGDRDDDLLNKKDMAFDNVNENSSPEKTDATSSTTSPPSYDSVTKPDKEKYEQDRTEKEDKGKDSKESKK

COC(=O)[C@@H](NC(=O)[C@H](CCC(=O)OC(C)(C)C)NC(=O)[C@H](CC(C)C)NC(=O)[C@@H]1CCCN1C(=O)OCc1ccccc1)C(C)C [PW164] (Cbz-PLE(OtBu)V-OMe)
Time constant of repriming, Mean (Nav1.7 + FGF13-GFP, recovery potential -100): 42.57 ms
Time constant of repriming, Mean (Nav1.7 + FGF13-GFP, recovery potential -120): 33.57 ms
Time constant of repriming, Mean (Nav1.7 + FGF13-GFP, recovery potential -140): 16.96 ms
Time constant of repriming, Mean (Nav1.7 + GFP, recovery potential -60): 57.89 ms
Time constant of repriming, Mean (Nav1.7 + GFP, recovery potential -70): 65.42 ms
Time constant of repriming, Mean (Nav1.7 + GFP, recovery potential -80): 71.67 ms
Time constant of repriming, Mean (Nav1.7 + GFP, recovery potential -90): 61.78 ms
Time constant of repriming, Mean (Nav1.7 + GFP, recovery potential -100): 47.69 ms
Time constant of repriming, Mean (Nav1.7 + GFP, recovery potential -120): 34.63 ms
Time constant of repriming, Mean (Nav1.7 + GFP, recovery potential -140): 16.6 ms
Activation (FGF13-GFP + PW164 50 μM): −19.7 ± 0.9 mV
Long-term inactivation, 2nd Pulse (FGF13-GFP + PW164 50 μM): −69.72 ± 5.21 % maximal Na+ current
Long-term inactivation, 3rd Pulse (FGF13-GFP + PW164 50 μM): −60.33 ± 5.60 % maximal Na+ current
Long-term inactivation, 4th Pulse (FGF13-GFP + PW164 50 μM): −59.34 ± 4.68 % maximal Na+ current
Peak Density (FGF13-GFP + PW164 50 μM): −26.7 ± 3.6 pA/pF
Steady state inactivation (FGF13-GFP + PW164 50 μM): −64.7 ± 2.1 mV
Tau (τ) (FGF13-GFP + PW164 50 μM): 0.80 ± 0.03 ms
Activation (FGF13A GFP (FGF13-1a) + PW164): −26.91 ± 1.25 mV
Peak Density (FGF13A GFP (FGF13-1a) + PW164): −109.1 ± 11.7 pA/pF
Steady state inactivation (FGF13A GFP (FGF13-1a) + PW164): −63.11 ± 2.14 mV
Tau (τ) (FGF13A GFP (FGF13-1a) + PW164): 1.41 ± 0.06 ms
Long-term inactivation, 2nd Pulse (FGF13A-GFP (FGF13-1a) + PW164): −47.28 ± 4.68 % maximal Na+ current
Long-term inactivation, 3rd Pulse (FGF13A-GFP (FGF13-1a) + PW164): −35.27 ± 3.04 % maximal Na+ current
Long-term inactivation, 4th Pulse (FGF13A-GFP (FGF13-1a) + PW164): −29.22 ± 4.16 % maximal Na+ current
Activation (GFP + PW164 50 μM): −26.1 ± 0.4 mV
Long-term inactivation, 2nd Pulse (GFP + PW164 50 μM): −67.94 ± 3.77 % maximal Na+ current
Long-term inactivation, 3rd Pulse (GFP + PW164 50 μM): −62.35 ± 5.35 % maximal Na+ current
Long-term inactivation, 4th Pulse (GFP + PW164 50 μM): −60.93 ± 3.90 % maximal Na+ current
Peak Density (GFP + PW164 50 μM): −69.2 ± 7.5 pA/pF
Steady state inactivation (GFP + PW164 50 μM): −83.5 ± 1.7 mV
Tau (τ) (GFP + PW164 50 μM): 1.48 ± 0.25 ms
IC50 (HEK-Nav1.7 coexpressing FGF13-GFP, Fig 1F, read-out: IC50, reversal of FGF13-induced increase in INa density): 6.74 ± 0.5 µM
Time constant (ms), Mean (Figure 4J) (Nav1.7 + FGF13-GFP, at -60, N 5): 36.71 ms
Time constant (ms), Mean (Figure 4J) (Nav1.7 + FGF13-GFP, at -70, N 5): 42.79 ms
Time constant (ms), Mean (Figure 4J) (Nav1.7 + FGF13-GFP, at -80, N 5): 44.71 ms
Time constant (ms), Mean (Figure 4J) (Nav1.7 + FGF13-GFP, at -90, N 5): 37.77 ms
Time constant (ms), Mean (Figure 4J) (Nav1.7 + FGF13-GFP, at -100, N 5): 28.49 ms
Time constant (ms), Mean (Figure 4J) (Nav1.7 + FGF13-GFP, at -120, N 5): 23.55 ms
Time constant (ms), Mean (Figure 4J) (Nav1.7 + FGF13-GFP, at -140, N 5): 14.96 ms
Time constant (ms), Mean (Figure 4J) (Nav1.7 + GFP, at -60, N 6): 50.23 ms
Time constant (ms), Mean (Figure 4J) (Nav1.7 + GFP, at -70, N 6): 52.23 ms
Time constant (ms), Mean (Figure 4J) (Nav1.7 + GFP, at -80, N 6): 56.52 ms
Time constant (ms), Mean (Figure 4J) (Nav1.7 + GFP, at -90, N 6): 45.93 ms
Time constant (ms), Mean (Figure 4J) (Nav1.7 + GFP, at -100, N 6): 35.06 ms
Time constant (ms), Mean (Figure 4J) (Nav1.7 + GFP, at -120, N 6): 27.11 ms
Time constant (ms), Mean (Figure 4J) (Nav1.7 + GFP, at -140, N 6): 15.6 ms
activity on Nav1.7 currents (Nav1.7 cells coexpressing FGF13-1a-GFP (FGF13S)): inactive
